Earlier results, collected in patent publication US11793953B2, “Inhalers and related methods” (Norton (Waterford) Limited, priority 2017, dated 2023).

surface tension (as liquid at 25° C.): about 8 mN/m | vapor pressure (at 20° C.): 572 kpa
Structure (SMILES): FCC(F)(F)F [HFA134a, 1,1,1,2-tetrafluoroethane]
